Structures can show the parent of a compound that is named as a salt. Where two headings read alike, the source gives them in different places.

Consider five compounds from US11827611B2, “Ubiquitin-specific peptidase 24 inhibitor, medicinal composition including the same and method of delaying or reversing multidrug resistance in cancers using the same” (NATIONAL CHENG KUNG UNIVERSITY, priority 2020, dated 2023).

The test system of data set [1] is USP24 substrates, Bax and BRD7, in A549 cells. In words: protein levels of USP24 substrates in A549 cells treated with USP24 inhibitor candidates (Western blotting). It counts as cell-based, human. The conditions noted are these: for levels of Bax, BRD7 / level of p300: A549 cells; for levels of Bax, BRD7: FIG. 4B; for level of p300: FIG. 4D. From the text:
FIG. 4B illustrates a bar diagram showing the relative protein levels of USP24 substrates, Bax and BRD7, in A549 cells treated with various USP24 inhibitor candidates according to several embodiments of the present invention.
FIG. 4D illustrates the result of Western blotting assay with anti-Ubiquitin antibodies for evaluating the ubiquitination of p300 in A549 cells with or without USP24 overexpression or USP24 inhibitor according to an embodiment of the present invention.
Human lung adenocarcinoma epithelial cell line A549 and other lung cancer cell lines were cultured with RPMI 1640 medium (Invitrogen) containing 10% fetal bovine serum (FBS), 100 μg/ml streptomycin and 100 U/ml penicillin G sodium. All cells were incubated at 37° C. with 5% CO2. For transfecting plasmid, Polyjet (SignaGen) was used according to manufacturer's instructions.
(In general: A western blot detects proteins with antibodies after separation by electrophoresis.)

A further data set addresses USP24 (Homo sapiens, UniProt Q9UPU5). The data set can be described thus: in vitro enzyme assay of pure recombinant USP24 protein with biotin-tetra-ub as the substrate. The conditions noted are these: for catalytic activity of recombinant purified USP24 proteins: biotin-tetra-ub substrate, FIG. 4C / 6C. It counts as biochemical. From the text:
FIG. 4C illustrates the result of in vitro enzyme assay of the enzyme activity of USP24 pure recombinant USP24 protein with biotin-tetra-ub as the substrate in the absence or presence of USP24 inhibitor according to several embodiments of the present invention.
FIG. 6C illustrates the result of in vitro enzyme assay of the enzyme activity of USP24 pure recombinant USP24 protein with biotin-tetra-ub as the substrate in the absence or presence of USP24 inhibitor according to several embodiments of the present invention.

In a further data set the target is USP7 (Homo sapiens, UniProt Q93009). The data set can be described thus: catalytic activity of USP7. The data set is classed as biochemical. The conditions noted are these: data not shown.
USP7, sequence (Q93009 whole entry, species assumed): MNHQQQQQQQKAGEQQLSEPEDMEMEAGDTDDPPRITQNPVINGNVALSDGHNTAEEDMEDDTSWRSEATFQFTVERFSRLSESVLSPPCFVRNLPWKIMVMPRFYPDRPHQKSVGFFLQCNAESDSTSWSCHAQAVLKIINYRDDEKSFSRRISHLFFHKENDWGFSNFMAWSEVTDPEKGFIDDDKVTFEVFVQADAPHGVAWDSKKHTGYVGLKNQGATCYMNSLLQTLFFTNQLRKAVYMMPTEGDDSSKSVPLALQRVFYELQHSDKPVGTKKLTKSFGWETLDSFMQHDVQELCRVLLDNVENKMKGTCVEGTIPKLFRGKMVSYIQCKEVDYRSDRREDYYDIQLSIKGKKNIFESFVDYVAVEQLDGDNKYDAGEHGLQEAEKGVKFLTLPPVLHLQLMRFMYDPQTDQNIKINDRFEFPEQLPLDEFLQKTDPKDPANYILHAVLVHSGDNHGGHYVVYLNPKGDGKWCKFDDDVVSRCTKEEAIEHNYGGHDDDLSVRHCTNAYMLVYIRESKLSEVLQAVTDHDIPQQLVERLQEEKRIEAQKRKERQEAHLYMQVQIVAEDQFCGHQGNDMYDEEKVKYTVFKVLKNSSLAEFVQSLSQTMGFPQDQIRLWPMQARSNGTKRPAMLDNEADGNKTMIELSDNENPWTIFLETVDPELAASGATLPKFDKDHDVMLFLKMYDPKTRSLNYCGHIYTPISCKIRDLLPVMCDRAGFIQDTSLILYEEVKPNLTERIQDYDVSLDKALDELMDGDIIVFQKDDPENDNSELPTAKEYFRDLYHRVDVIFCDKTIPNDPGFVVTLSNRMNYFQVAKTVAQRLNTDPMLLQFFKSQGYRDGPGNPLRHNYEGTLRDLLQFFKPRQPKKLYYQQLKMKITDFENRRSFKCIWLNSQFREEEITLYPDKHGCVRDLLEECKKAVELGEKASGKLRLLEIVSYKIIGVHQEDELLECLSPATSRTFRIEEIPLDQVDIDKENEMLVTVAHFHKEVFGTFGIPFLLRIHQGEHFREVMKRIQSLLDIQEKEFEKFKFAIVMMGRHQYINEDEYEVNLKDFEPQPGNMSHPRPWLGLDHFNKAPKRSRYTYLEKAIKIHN
The next data set addresses USP10 (Homo sapiens, UniProt Q14694). The data set can be described thus: catalytic activity of USP10. Particulars: data not shown. It counts as biochemical.
The subject of a further data set is lung cancer. In words: lung cancer migratory ability. It counts as cell-based. The conditions noted are these: data not shown.
The test system of data set [2] is T24 cells. The data set can be described thus: taxol concentration inside cells evaluated by LC/MS/MS. The data set is classed as cell-based, human. From the text:
FIG. 2H illustrates the images of the taxol concentration inside cells evaluated by LC/MS/MS with or without USP24 knockdown according to an embodiment of the present invention.
FIG. 4J illustrates the concentration of taxol inside cells treated with USP24 inhibitor evaluated by LC/MS/MS according to an embodiment of the present invention.
FIG. 6B illustrates the profiles of the taxol concentration in the taxol-resistant T24 cells treated with USP24-i101 (the upper panel) or DMSO (lower panel) detected by LC/MS/MS analysis according to an embodiment of the present invention.

The next data set addresses USP9x (Homo sapiens, UniProt Q93008). The data set can be described thus: catalytic activity of USP9x. The data set is classed as biochemical. The conditions noted are these: data not shown.
In data set [3] the test system is T24 cells. The data set can be described thus: cytotoxicity of T24 cells in the treatment of taxol with or without USP24 inhibitor. It counts as cell-based, human. The conditions noted are these: FIG. 4E. An excerpt: (§1) FIG. 4E(a) to 4F(c) illustrate the results of the cytotoxicity of T24 cells [FIGS. 4E(a) and 4E(b)], TMZR [FIG. 4F(a)], Hone-1 CPT-R [FIG. 4F(b)] and HCT116OX5 [FIG. 4F(c)] treated with or without USP24 inhibitor according to several embodiments of the present invention.
FIG. 6A(a) to 6A(b) illustrate the results of the cytotoxicity of T24 cells in the treatment of taxol with or without USP24 inhibitor treatment according to an embodiment of the present invention.

The next data set has as its system TMZR. The data set can be described thus: cytotoxicity of TMZR cells treated with or without USP24 inhibitor. The data set is classed as cell-based. Particulars: FIG. 4F(a).
Text: as §1

The subject of a further data set is Hone-1 CPT-R. The data set can be described thus: cytotoxicity of Hone-1 CPT-R cells treated with or without USP24 inhibitor. It counts as cell-based. The conditions noted are these: FIG. 4F(b).
Text: as §1

The subject of the next data set is HCT116OX5. The data set can be described thus: cytotoxicity of HCT116OX5 cells treated with or without USP24 inhibitor. It counts as cell-based. Particulars: HCT116OX5, FIG. 4F(c).
Text: as §1

The next data set has as its system P-gp. In words: Western blotting of the level and protein stability of P-gp in T24 treated with USP24 inhibitor. It counts as cell-based, human. Particulars: T24 cells. From the text: FIG. 4G(a) to 4H(b) illustrate the results of Western blotting assay of the level and protein stability of P-gp in T24 treated with USP24 inhibitor according to an embodiment of the present invention.

Data set [4] relates to T24 cells. In words: sphere formation of T24 cells with or without USP24 inhibitor. It counts as cell-based, human. From the text:
FIGS. 41(a) and 41(b) illustrate the results of the sphere formation of T24 cells with or without USP24 inhibitor treatment according to an embodiment of the present invention.

The subject of a further data set is T24. The data set can be described thus: tumor size of T24 injected into SCID mice treated with taxol and USP24 inhibitor. It counts as in vivo. Particulars: combined with taxol. From the text:
(§2) FIGS. 4K(a) and 4K(b) illustrate the results of the tumor size of T24 injected into SCID mice treated with taxol and USP24 inhibitor in the indicated time according to an embodiment of the present invention.
The experiments related with animals were approved by the Institutional Animal Care and Use Committee (IACUC) at National Cheng Kung University (NCKU). These transgenic mice were generated in National Laboratory Animal Center (NLAC, Taiwan, Tainan). After breeding, two-month-old transgenic mice were used to study lung cancer development. Caging was provided suitable space and accommodates appropriate population densities that allow animals' sufficient freedom of movement. To provide amounts of food that must be for transgenic mice normal growth, and maintenance of normal body weight. These transgenic mice were accessed to fresh and uncontaminated drinking water. Transgenic mice were also observed and cared at least for two to three times per week. All methods involving animals were performed in accordance with the relevant guidelines and regulations.

Another data set relates to EMT markers. In words: EMT markers. The data set is classed as cell-based.
Data set [5] can be described thus: body weight of SCID mice treated with taxol and USP24 inhibitor. The data set is classed as in vivo. The conditions noted are these: data not shown.
Text: as §2

Data set [6] can be described thus: cytotoxicity of HCC827-GR cells treated with or without USP24 inhibitor under various concentrations of Gefitinib. Particulars: human.
The next data set has as its system HCC827-GR cells. The data set is described as above.

USP24, sequence (Q9UPU5 whole entry): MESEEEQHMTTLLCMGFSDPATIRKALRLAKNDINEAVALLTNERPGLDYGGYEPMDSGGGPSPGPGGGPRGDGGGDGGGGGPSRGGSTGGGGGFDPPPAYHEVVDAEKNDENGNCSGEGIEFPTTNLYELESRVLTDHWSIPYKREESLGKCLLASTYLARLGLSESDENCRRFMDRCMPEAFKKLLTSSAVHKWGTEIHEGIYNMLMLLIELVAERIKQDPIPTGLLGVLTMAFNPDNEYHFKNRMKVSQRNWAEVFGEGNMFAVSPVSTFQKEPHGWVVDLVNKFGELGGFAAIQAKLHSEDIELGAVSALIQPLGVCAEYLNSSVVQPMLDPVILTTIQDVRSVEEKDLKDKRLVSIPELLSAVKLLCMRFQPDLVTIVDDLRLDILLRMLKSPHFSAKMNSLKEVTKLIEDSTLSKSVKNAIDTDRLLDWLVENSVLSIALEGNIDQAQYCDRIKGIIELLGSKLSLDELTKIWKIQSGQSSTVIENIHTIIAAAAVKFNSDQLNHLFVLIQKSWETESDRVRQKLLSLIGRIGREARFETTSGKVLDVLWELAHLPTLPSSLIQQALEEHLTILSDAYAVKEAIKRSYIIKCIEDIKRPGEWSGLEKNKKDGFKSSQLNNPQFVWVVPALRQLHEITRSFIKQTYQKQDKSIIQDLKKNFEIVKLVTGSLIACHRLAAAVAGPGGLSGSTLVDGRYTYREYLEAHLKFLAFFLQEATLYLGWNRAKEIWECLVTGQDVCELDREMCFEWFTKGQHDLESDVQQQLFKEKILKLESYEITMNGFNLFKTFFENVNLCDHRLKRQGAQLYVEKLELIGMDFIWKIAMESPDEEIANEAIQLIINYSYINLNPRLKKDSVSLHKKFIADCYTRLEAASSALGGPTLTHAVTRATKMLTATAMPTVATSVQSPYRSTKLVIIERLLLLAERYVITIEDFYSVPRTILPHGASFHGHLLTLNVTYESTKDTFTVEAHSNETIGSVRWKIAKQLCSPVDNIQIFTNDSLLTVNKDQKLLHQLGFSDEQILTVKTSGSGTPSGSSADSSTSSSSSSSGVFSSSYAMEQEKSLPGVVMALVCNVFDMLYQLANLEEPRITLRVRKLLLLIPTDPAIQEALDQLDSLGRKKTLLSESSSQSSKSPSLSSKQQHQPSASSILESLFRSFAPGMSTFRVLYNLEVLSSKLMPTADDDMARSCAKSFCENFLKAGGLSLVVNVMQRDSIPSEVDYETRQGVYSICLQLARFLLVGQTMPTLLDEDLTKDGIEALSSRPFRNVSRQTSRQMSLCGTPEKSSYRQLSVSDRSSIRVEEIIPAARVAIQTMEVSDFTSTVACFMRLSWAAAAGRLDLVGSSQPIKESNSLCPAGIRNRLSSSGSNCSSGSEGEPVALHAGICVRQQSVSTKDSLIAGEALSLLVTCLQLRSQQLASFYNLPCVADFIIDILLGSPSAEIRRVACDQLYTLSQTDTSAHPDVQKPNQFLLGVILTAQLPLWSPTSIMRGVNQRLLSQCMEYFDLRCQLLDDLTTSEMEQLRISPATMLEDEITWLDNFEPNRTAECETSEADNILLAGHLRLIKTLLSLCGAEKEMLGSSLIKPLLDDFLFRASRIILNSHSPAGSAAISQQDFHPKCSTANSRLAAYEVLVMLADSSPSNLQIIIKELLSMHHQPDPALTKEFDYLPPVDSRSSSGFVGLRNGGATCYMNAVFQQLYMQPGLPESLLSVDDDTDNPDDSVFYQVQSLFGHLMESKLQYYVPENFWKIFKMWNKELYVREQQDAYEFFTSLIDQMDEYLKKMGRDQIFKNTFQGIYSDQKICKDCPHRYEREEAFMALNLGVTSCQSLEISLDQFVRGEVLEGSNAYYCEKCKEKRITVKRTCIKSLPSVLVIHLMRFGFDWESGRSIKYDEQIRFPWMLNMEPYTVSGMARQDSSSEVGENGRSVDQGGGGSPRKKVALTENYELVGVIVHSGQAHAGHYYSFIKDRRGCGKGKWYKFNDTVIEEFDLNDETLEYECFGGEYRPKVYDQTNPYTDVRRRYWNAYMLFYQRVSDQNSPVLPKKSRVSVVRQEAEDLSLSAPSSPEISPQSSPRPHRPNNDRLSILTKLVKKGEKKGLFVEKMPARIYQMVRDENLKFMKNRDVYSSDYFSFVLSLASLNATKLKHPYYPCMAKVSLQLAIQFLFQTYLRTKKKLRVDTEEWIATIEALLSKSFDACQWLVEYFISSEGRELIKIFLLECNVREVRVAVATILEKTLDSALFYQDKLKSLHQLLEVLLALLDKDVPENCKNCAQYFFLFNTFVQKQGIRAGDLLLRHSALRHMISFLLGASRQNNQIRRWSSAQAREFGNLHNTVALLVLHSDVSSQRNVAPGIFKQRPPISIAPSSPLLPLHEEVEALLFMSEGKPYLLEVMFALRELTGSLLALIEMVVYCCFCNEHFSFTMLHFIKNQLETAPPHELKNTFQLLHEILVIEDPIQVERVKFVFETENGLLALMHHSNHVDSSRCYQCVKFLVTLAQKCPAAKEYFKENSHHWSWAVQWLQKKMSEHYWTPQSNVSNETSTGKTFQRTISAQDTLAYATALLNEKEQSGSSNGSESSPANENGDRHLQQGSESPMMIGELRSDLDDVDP
USP10, sequence (Q14694 whole entry): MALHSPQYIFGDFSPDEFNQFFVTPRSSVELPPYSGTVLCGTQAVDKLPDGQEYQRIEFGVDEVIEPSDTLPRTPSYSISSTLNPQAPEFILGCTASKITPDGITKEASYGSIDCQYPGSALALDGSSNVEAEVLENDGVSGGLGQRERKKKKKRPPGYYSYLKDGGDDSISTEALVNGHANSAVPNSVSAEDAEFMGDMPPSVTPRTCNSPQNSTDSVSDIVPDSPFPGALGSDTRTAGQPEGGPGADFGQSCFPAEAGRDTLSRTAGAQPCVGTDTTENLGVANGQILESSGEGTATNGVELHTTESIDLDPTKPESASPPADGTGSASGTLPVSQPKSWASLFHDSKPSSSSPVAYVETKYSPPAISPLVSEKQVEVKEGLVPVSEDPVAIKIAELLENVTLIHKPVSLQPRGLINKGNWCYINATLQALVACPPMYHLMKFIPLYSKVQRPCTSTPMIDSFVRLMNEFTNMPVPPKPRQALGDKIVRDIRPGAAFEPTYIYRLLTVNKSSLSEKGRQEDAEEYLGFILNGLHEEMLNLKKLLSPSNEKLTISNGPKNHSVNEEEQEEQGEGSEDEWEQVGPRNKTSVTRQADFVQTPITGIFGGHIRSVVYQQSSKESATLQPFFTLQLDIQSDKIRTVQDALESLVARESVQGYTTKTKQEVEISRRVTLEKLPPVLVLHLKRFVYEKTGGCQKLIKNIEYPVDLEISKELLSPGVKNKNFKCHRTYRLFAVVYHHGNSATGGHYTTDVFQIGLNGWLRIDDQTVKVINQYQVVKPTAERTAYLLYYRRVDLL

Turning to `CCCCNS(=O)(=O)c1ccc(NC(=O)c2ccc3ccccc3c2O)c([N+](=O)[O-])c1` [NCI158067], in data set [1], the “levels of Bax, BRD7” value is reported as “could decrease the levels” and the “level of p300” value is on record as “could decrease the levels”. Also, the “catalytic activity of recombinant purified USP24 proteins” value on USP24 is “inhibited the catalytic activity”. In addition, on USP7, the “catalytic activity of USP7” value is recorded as “could inhibit”. For the same compound, on USP10, the “catalytic activity of USP10” value was “could inhibit”. Further, in the data set on lung cancer, the lung cancer migration result is given as “could inhibit lung cancer migration”.
For the compound `CN1CCN(CCCCN2c3ccccc3Sc3ccc(C(=O)c4ccccc4)cc32)CC1` [NCI677397, (10-(4-(4-Methylpiperazin-1-yl)butyl)-10H-phenothiazin-2-yl)(phenyl)methanone oxalate], the “concentration of taxol inside cells, with USP24 inhibitor” value in the data set on T24 cells [2] (under 1000 nM taxol treatment) is reported as 321.36 nM. For the same compound, in data set [1], the “levels of Bax, BRD7” value is reported as “could decrease the levels” and the “level of p300” value is “could decrease the levels”. Moreover, the “catalytic activity of recombinant purified USP24 proteins” value at USP24 is on record as “inhibited the catalytic activity”. Further, at USP24 (versus USP7, USP9x, USP10), the “specificity in blocking USP24 enzyme activity” value was “higher specificity”. Further, on USP7, the “catalytic activity of USP7” value is given as “could not block”. The “catalytic activity of USP9x” value at USP9x is “could not block”. Moreover, at USP10, the “catalytic activity of USP10” value is listed as “could not block”. Moreover, the “drug resistance induced by taxol in lung cancer” value with T24 cells [3] is “could significantly block the drug resistance”. Moreover, the “drug resistance induced by TMZ in brain cancer” value with TMZR was “could significantly block the drug resistance”. Moreover, the “drug resistance induced by Camptothecin in NPC” value in the data set with Hone-1 CPT-R is on record as “could significantly block the drug resistance”. Also, the “drug resistance induced by oxaliplatin in colorectal cancer” value in the data set on HCT116OX5 is “could significantly block the drug resistance”. In the data set on P-gp, the “level of P-gp” value is on record as “could decrease the level of P-gp”. In the data set with T24 cells [4], the “T24 sphere formation ability” value is listed as “inhibit the T24 sphere formation ability”. Moreover, the “cytotoxicity of taxol in the inhibition of cancer size and weight” value in the data set on T24 was “increased the cytotoxicity of taxol in the inhibition of cancer size and weight”. The lung cancer migration entry in the data set on lung cancer is given as “could inhibit lung cancer migration”. For the same compound, the EMT markers entry in the data set on EMT markers is reported as “inhibited”. In addition, in [5], the body weight entry was “did not affect the body weight”.
A word on the viability: it is a read-out of living cells in per cent, often relative to untreated cells. A higher viability goes with less harm to the cells. `CN1CCN(CCN2c3ccccc3Sc3ccc(C(=O)c4ccccc4)cc32)CC1` [USP24-i101, (10-(2-(4-Methylpiperazin-1-yl)ethyl)-10H-phenothiazin-2-yl)(phenyl)methanone]: the “catalytic activity of recombinant purified USP24 proteins” value on USP24 is “had comparably catalytic activity to NCI699397”. In [6], the viability at 1 μg/mL turned out to be 94% and the viability at 5 μg/mL is 80.5%. Besides, in the data set on HCC827-GR cells (read-out: IC50 of gefitinib in HCC827-GR with USP24-i101, 1 μg/mL of USP24-i101), the IC50 was found to be 6.3 nM. Besides, the IC50 in the data set on HCC827-GR cells (read-out: IC50 of gefitinib in HCC827-GR with USP24-i101, 5 μg/mL of USP24-i101) amounted to 3.1 nM.
As to `CCC[C@H](NC(=O)/C(C#N)=C/c1cccc(Br)n1)c1ccccc1` [WP1130, reference compound], in [1] (FIG. 4C), the “inhibition of the substrates of USP24 in lung cancer” value is “could not inhibit”.
As to `CC(=O)O[C@H]1C(=O)[C@@]2(C)[C@H]([C@H](OC(=O)c3ccccc3)[C@]3(O)C[C@H](OC(=O)[C@H](O)[C@@H](NC(=O)c4ccccc4)c4ccccc4)C(C)=C1C3(C)C)[C@]1(OC(C)=O)CO[C@@H]1C[C@@H]2O` [taxol], the “accumulation of taxol inside the drug resistant cells, T24” value was 272.7 nM/1000 nM in the data set with T24 cells [2] (loss of USP24 (knockdown)) and 110.8 nM/1000 nM with T24 cells [2] (without USP24 knockdown).
